From patent US8410289B2, “Spirocyclic 3'-alkoxytetramic acids and-tetronic acids” (Bayer Cropscience AG, priority 2004, dated 2013)

Key:
Type in all cases: in vivo
maize = assay: Herbicidal post-emergence action with/without safener (Example H, container trials with maize in a greenhouse); details: 12.5 g of a.i./ha, without safener
Method: (§1) Herbicidal Post-Emergence Action
Seeds of monocotyledonous and dicotyledonous weed and crop plants are placed into sandy loam in wood fibre pots or in plastic pots, covered with soil and cultivated in a greenhouse, during the vegetation period also outdoors outside of the greenhouse, under good growth conditions. 2-3 weeks after sowing, the test plants are treated at the one- to three-leaf stage. The test compounds, formulated as wettable powders (WP) or emulsifiable concentrates (EC) are, in various dosages with a water application rate of 300 l/ha (converted), with wetting agent (0.2 to 0.3%) added, sprayed onto the plants and the surface of the soil. 3-4 weeks after the treatment of the test plants, the effect of the preparations is rated visually in comparison to untreated controls (herbicidal effect in per cent (%): 100%=the plants have died, 0% effect=like control plants). […]

Summer wheat = assay: Herbicidal post-emergence action with/without safener (Example H, container trials with cereals, greenhouse or outdoors)
Method: as §1
(§2) Seeds of monocotyledonous and dicotyledonous weed and crop plants are placed into sandy loam in wood fibre pots or in plastic pots, covered with soil and cultivated in a greenhouse, during the vegetation period also outdoors outside of the greenhouse, under good growth conditions. 2-3 weeks after sowing, the test plants are treated at the one- to three-leaf stage. The test compounds, formulated as wettable powders (WP) or emulsifiable concentrates (EC) are, in various dosages with a water application rate of 300 l/ha (converted), with wetting agent (0.2 to 0.3%) added, sprayed onto the plants and the surface of the soil. 3-4 weeks after the treatment of the test plants, the effect of the preparations is rated visually in comparison to untreated controls (herbicidal effect in per cent (%): 100%=the plants have died, 0% effect=like control plants).
(§3) If it is additionally to be tested as to whether safeners can improve the crop plant compatibility of test substances in the case of crop plants, the following options are used for applying the safener: • seeds of the crop plants are, before sowing, dressed with the safener substance (the amount of safener stated in per cent, based on the weight of the seed) • before the application of the test substances, the crop plants are sprayed with the safener at a certain application rate per hectare (usually 1 day before the application of the test substances) • the safener is applied together with the test substance as a tank mix (the amount of safener is stated in g/ha or as a ratio, based on the herbicide).
(§4) By comparing the effect of the test substances on crop plants without or with safener treatment, it is possible to assess the effect of the safener substance.

barley = assay: as above; details: for Summer barley observed (%): outdoors
Method: as §1, §2, §3, §4

[1] = tank mix post-emergence, 20 g of a.i./ha, without safener
[2] = tank mix post-emergence, 80 g of a.i./ha, without safener

With CCOC(=O)OC1=C(c2c(Br)cc(C)cc2CC)C(=O)NC12CCCC(OC)C2 (single isomer, unassigned) [Ex. I-1-c-10] the “Cecilia Mais observed (%)” value (maize) was 40% and the “Summer wheat observed (%)” value (Summer wheat; greenhouse, 12.5 g of a.i./ha, without safener) was 60%.

In the case of CCCCOC1CCCC2(C1)NC(=O)C(c1c(C)cc(C)cc1C)=C2O (single isomer, unassigned) [Example I-1-a-43], the “Summer wheat observed (%)” value (Summer wheat; outdoors, 12.5 g of a.i./ha, without safener (trial with mefenpyr 1 day prior)) is reported as 30%, the “Summer wheat observed (%)” value (Summer wheat; outdoors, 25 g of a.i./ha, without safener (tank mix trial)) is reported as 40% and the “Summer wheat observed (%)” value (Summer wheat; outdoors, 25 g of a.i./ha, without safener (trial with mefenpyr 1 day prior)) is reported as 60%. The “Summer wheat observed (%)” value (Summer wheat; outdoors, 50 g of a.i./ha, without safener (tank mix trial)) was 50%, the “Summer wheat observed (%)” value (Summer wheat; outdoors, 50 g of a.i./ha, without safener (trial with mefenpyr 1 day prior)) was 15% and the “Summer wheat observed (%)” value (Summer wheat; outdoors, 100 g of a.i./ha, without safener (tank mix trial), listed as Ex. I-1-a-43) was 60%. The “Summer wheat observed (%)” value (Summer wheat; outdoors, 100 g of a.i./ha, without safener (trial with mefenpyr 1 day prior)) was 30%, the “Summer barley observed (%)” value (barley; 12.5 g of a.i./ha, without safener (trial with mefenpyr 1 day prior)) was 10% and the “Summer barley observed (%)” value (barley; 25 g of a.i./ha, without safener (tank mix trial)) was 40%. For the same compound, the “Summer barley observed (%)” value (barley; 25 g of a.i./ha, without safener (trial with mefenpyr 1 day prior)) was 70%, the “Summer barley observed (%)” value (barley; 50 g of a.i./ha, without safener (tank mix trial)) was 50% and the “Summer barley observed (%)” value (barley; 50 g of a.i./ha, without safener (trial with mefenpyr 1 day prior)) was 20%. The “Summer barley observed (%)” value (barley; 100 g of a.i./ha, without safener (tank mix trial), listed as Ex. I-1-a-43) was 60%, the “Summer barley observed (%)” value (barley; 100 g of a.i./ha, without safener (trial with mefenpyr 1 day prior)) was 30% and the “Summer barley (Scarlett) observed (%)” value (barley; [1]) was 30%. For the same compound, the “Winter barley observed (%)” value (barley; [1]) was 20%, the “Summer barley (Baronesse) observed (%)” value (barley; [2]) was 30% and the “Winter barley observed (%)” value (barley; [2]) was 30%.

For CCCCOC1CCCC2(C1)NC(=O)C(c1c(C)cc(C)cc1C)=C2O (stereo not shown) [Example I-1-a-1], the “Summer wheat observed (%)” value (Summer wheat; outdoors, 100 g of a.i./ha, without safener (tank mix trial), listed as Ex. I-1-a-1) was 35% and the “Summer barley observed (%)” value (barley; 100 g of a.i./ha, without safener (tank mix trial), listed as Ex. I-1-a-1) was 70%.
